# Assay results published in patent EP0377642B1, “HERBICIDES FOR WEED CONTROL IN RICE” (E.I. DU PONT DE NEMOURS AND COMPANY, priority 1987, dated 1989).
# Like-named read-outs stand apart in the source and are kept apart here.
# Columns and labels:
# Format in all cases: in vivo
# WEED [1] = test: Field test applied 7 DAS in direct seeded rice in the Philippines, weed cover (Table 14); settings: 47 DAA
# Source text: (§1) Methyl 2-[[[[(4-methoxy-6-methyl-1,3,5-triazin-2-yl)amino]carbonyl]amino]sulfonyl]benzoate (Compound 1) and mixtures thereof with other compounds were applied as a spray (using a hand sprayer) to rice (either transplanted or direct seeded) in several rice growing areas in Southeast Asia and in the U.S. Tables 1-28 contain the results of these tests and clearly exemplify the utility of this invention. The details of each application are included in the appropriate table. [drawing 2]
# [2] = tested on: Barnyardgrass (Echinochloa crus-galli); test: Field test applied 7 DAS in direct seeded rice in the Philippines, cover (Table 14); settings: 47 DAA
# Source text: as §1
# SEDGE = test: as above; settings: 47 DAA
# Source text: as §1
# rice [3] = test: Herbicidal efficacy with Bensulfuron methyl and 2,4-D in Thailand (Table 18); settings: 4 GAI/HA; 13 days after treatment
# Source text: as §1
# Sphenoclea zeylanica [4] = test: as above; settings: 4 GAI/HA; 13 days after treatment
# Source text: as §1
# Cyperus difformis [5] = test: as above; settings: 4 GAI/HA; 13 days after treatment
# Source text: as §1
# Cyperus iria [6] = test: Field test with Bensulfuron methyl in direct seeded rice (Table 10); settings: 10 = complete control
# Source text: as §1
# Sphenoclea zeylanica [7] = test: as above; settings: 10 = complete control
# Source text: as §1
# Marsilea crenata = test: as above; settings: 10 = complete control
# Source text: as §1
# rice [8] = test: Effects in combination with Bensulfuron Methyl and Thiobencarb or Pretilachlor on rice growth (Table 23); settings: rate 2 g ai/ha; var. Koshihikari, applied 7 days after transplanting, rated 21 days after application
# Source text: as §1
# Ludwigia linifolia = test: Herbicidal efficacy with Bensulfuron methyl and 2,4-D in Thailand (Table 20); settings: 4 GAI/HA; 14 days after treatment
# Source text: as §1
# Cuperus iria = test: as above; settings: 4 GAI/HA; 14 days after treatment
# Source text: as §1
# rice [9] = test: as above; settings: 4 GAI/HA; 14 days after treatment
# Source text: as §1
# Sphenoclea zeylanica [10] = test: as above; settings: 4 GAI/HA; 14 days after treatment
# Source text: as §1
# FIMBRISTYLIS MILIACEA [11] = test: as above; settings: 4 GAI/HA; 14 days after treatment
# Source text: as §1
# direct seeded rice [12] = test: Field test with Bensulfuron methyl in direct seeded rice, yield (Table 10)
# Source text: as §1
# WEED [13] = test: Effects in combination with Bensulfuron Methyl and Thiobencarb or Pretilachlor on weed control (Table 25); settings: rate 2 g ai/ha, scale 0 to 10, treated at 2.0 leaf stage, evaluated four weeks later
# Source text: as §1
# direct seeded rice [14] = test: Field test applied 7 DAS in direct seeded rice in the Philippines, phytotoxicity (Table 14); settings: 30 DAA
# Source text: as §1
# Cyperus iria [15] = test: Field test applied at 18 DAS in direct seeded rice (Table 12); settings: 4 GM.A.I./HA, scale 0-10
# Source text: as §1
# Jussiaea linifolia = test: as above; settings: 4 GM.A.I./HA, scale 0-10
# Source text: as §1
# Sphenoclea zeylanica [16] = test: as above; settings: 4 GM.A.I./HA, scale 0-10
# Source text: as §1
# FIMBRISTYLIS MILIACEA [17] = test: as above; settings: 4 GM.A.I./HA, scale 0-10
# Source text: as §1
# WEED [18] = test: Effects in combination with Bensulfuron Methyl and Thiobencarb or Pretilachlor on weed control (Table 24); settings: rate 2 g ai/ha, scale 0 to 10, treated at 1.0 leaf stage, evaluated four weeks later
# Source text: as §1
# direct seeded rice [19] = settings: 4 GM.A.I./HA; for PHYTO at 2WAA: scale 0-10
# Source text: as §1
# Sphenoclea zeylanica [20] = test: Field test applied at 7 DAS in direct seeded rice (Table 11); settings: 4 GM.A.I./HA, scale 0-10
# Source text: as §1
# Cyperus difformis [21] = test: as above; settings: 4 GM.A.I./HA, scale 0-10
# Source text: as §1
# rice [22] = test: Herbicidal efficacy with Bensulfuron methyl and 2,4-D in Thailand (Table 19); settings: 4 GAI/HA; 13 days after treatment
# Source text: as §1
# Sphenoclea zeylanica [23] = test: as above; settings: 4 GAI/HA; 13 days after treatment
# Source text: as §1
# Cuperus difformis = test: as above; settings: 4 GAI/HA; 13 days after treatment
# Source text: as §1
# Cyperus iria [24] = test: Field test applied at 25 DAS in direct seeded rice (Table 13); settings: 4 GM.A.I./HA, scale 0-10
# Source text: as §1
# Sphenoclea zeylanica [25] = test: as above; settings: 4 GM.A.I./HA, scale 0-10
# Source text: as §1
structure (smiles),measurement,setting,value
"COC(=O)c1ccccc1S(=O)(=O)NC(=O)Nc1nc(C)nc(OC)n1 [Compound 1, Methyl 2-[[[[(4-methoxy-6-methyl-1,3,5-triazin-2-yl)amino]carbonyl]amino]sulfonyl]benzoate]",% WEED COVER,WEED [1]; 1.65 G AI/HA,29%
same,% WEED COVER,WEED [1]; 2.40 G AI/HA,35%
same,% WEED COVER,WEED [1]; 3.33 G AI/HA,35%
same,% BYG COVER,[2]; 1.65 G AI/HA,26%
same,% BYG COVER,[2]; 2.40 G AI/HA,35%
same,% BYG COVER,[2]; 3.33 G AI/HA,35%
same,% SEDGE COVER,SEDGE; 1.65 G AI/HA,5%
same,% SEDGE COVER,SEDGE; 2.40 G AI/HA,6%
same,% SEDGE COVER,SEDGE; 3.33 G AI/HA,4%
same,% CONTROL OR INJURY RICE,rice [3],0%
same,% CONTROL OR INJURY SZ,Sphenoclea zeylanica [4],98%
same,% CONTROL OR INJURY CD,Cyperus difformis [5],100%
same,WEEDS CONTROL at 4 WAA CI,Cyperus iria [6]; 2 GAI/HA,0
same,WEEDS CONTROL at 4 WAA CI,Cyperus iria [6]; 4 GAI/HA,0
same,WEEDS CONTROL at 4 WAA SZ,Sphenoclea zeylanica [7]; 2 GAI/HA,7.93
same,WEEDS CONTROL at 4 WAA SZ,Sphenoclea zeylanica [7]; 4 GAI/HA,9.33
same,WEEDS CONTROL at 4 WAA MC,Marsilea crenata; 2 GAI/HA,10
same,WEEDS CONTROL at 4 WAA MC,Marsilea crenata; 4 GAI/HA,10
same,CROP TOLERANCE DW (Dry weight relative to untreated check),rice [8],73%
same,CROP TOLERANCE PH (Plant height relative to untreated check),rice [8],86%
same,CROP TOLERANCE VA (Visual crop injury),rice [8],3%
same,% CONTROL OR INJURY LL,Ludwigia linifolia,67%
same,% CONTROL OR INJURY CI,Cuperus iria,0%
same,% CONTROL OR INJURY RICE,rice [9],0%
same,% CONTROL OR INJURY SZ,Sphenoclea zeylanica [10],60%
same,% CONTROL OR INJURY FM,FIMBRISTYLIS MILIACEA [11],0%
same,YIELD,direct seeded rice [12]; 2 GAI/HA,3.62 TONS/HA
same,YIELD,direct seeded rice [12]; 4 GAI/HA,3.62 TONS/HA
same,WEED CONTROL RATINGS CD,WEED [13]; Cyperus difformis,7
same,WEED CONTROL RATINGS CS,WEED [13]; Cyperus serotinus,0
same,WEED CONTROL RATINGS EO,WEED [13]; Echinochloa oryzicola,1
same,WEED CONTROL RATINGS BL,WEED [13]; Lindernia pyxidaria,10
same,WEED CONTROL RATINGS MV,WEED [13]; Monochoria vaginalis,10
same,WEED CONTROL RATINGS SP,WEED [13]; Sagittaria pygmaea,8
same,WEED CONTROL RATINGS SJ,WEED [13]; Scirpus juncoides,6
same,PHYTO (1-9),direct seeded rice [14]; 1.65 G AI/HA,2
same,PHYTO (1-9),direct seeded rice [14]; 2.40 G AI/HA,2.3
same,PHYTO (1-9),direct seeded rice [14]; 3.33 G AI/HA,3.3
same,WEED CONTROL at 6 WAA CI,Cyperus iria [15],0.33
same,WEED CONTROL at 6 WAA JL,Jussiaea linifolia,7.67
same,WEED CONTROL at 6 WAA SZ,Sphenoclea zeylanica [16],6.33
same,WEED CONTROL at 6 WAA FM,FIMBRISTYLIS MILIACEA [17],0
same,WEED CONTROL RATINGS CD,WEED [18]; Cyperus difformis,10
same,WEED CONTROL RATINGS CS,WEED [18]; Cyperus serotinus,1
same,WEED CONTROL RATINGS EO,WEED [18]; Echinochloa oryzicola,1
same,WEED CONTROL RATINGS BL,WEED [18]; Lindernia pyxidaria,10
same,WEED CONTROL RATINGS MV,WEED [18]; Monochoria vaginalis,10
same,WEED CONTROL RATINGS SP,WEED [18]; Sagittaria pygmaea,8
same,WEED CONTROL RATINGS SJ,WEED [18]; Scirpus juncoides,7
same,YIELD,direct seeded rice [19]; 7 DAS,4.90 TONS/HA
same,PHYTO at 2WAA,direct seeded rice [19]; 7 DAS,0
same,YIELD,direct seeded rice [19]; 18 DAS,4.65 TONS/HA
same,PHYTO at 2WAA,direct seeded rice [19]; 18 DAS,0
same,YIELD,direct seeded rice [19]; 25 DAS,5.04 TONS/HA
same,PHYTO at 2WAA,direct seeded rice [19]; 25 DAS,0
same,WEED CONTROL at 6 WAA SZ,Sphenoclea zeylanica [20],10
same,WEED CONTROL at 6 WAA CD,Cyperus difformis [21],10
same,% CONTROL OR INJURY RICE,rice [22],0%
same,% CONTROL OR INJURY SZ,Sphenoclea zeylanica [23],93%
same,% CONTROL OR INJURY CD,Cuperus difformis,100%
same,WEED CONTROL at 6 WAA CI,Cyperus iria [24],0
same,WEED CONTROL at 6 WAA SZ,Sphenoclea zeylanica [25],9.53
